Assay results published in patent publication US20100298141A1, “SUBSTITUTED PYRIDINE N-OXIDE HERBICIDES” (E. I. DU PONT DE NEMOURS AND COMPANY, priority 2007, published 2010).

Assays:
giant foxtail [1] = assay: Test A pre-/postemergence greenhouse test; type: in vivo, Setaria faberi; settings: for Plant response rating, Foxtail, Giant: 0 to 100 scale where 0 is no effect and 100 is complete control; for Foxtail, Giant plant response rating: 0 to 100 scale
Outline: (§1)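 Herbicidal effect is a visual injury score given about ten days post-treatment by comparison with untreated controls. Preemergence plots received a directed spray onto sown loam–sand soil; postemergence plants, at the one- to two-leaf stage and 2–10 cm tall, were sprayed at the same time.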

velvetleaf = assay: Test A pre-/postemergence greenhouse test; type: in vivo, Abutilon theophrasti; settings: for Plant response rating, Velvetleaf: 0 to 100 scale where 0 is no effect and 100 is complete control; for Velvetleaf plant response rating: 0 to 100 scale
Outline: as §1

wheat = assay: Test A pre-/postemergence greenhouse test; type: in vivo, Triticum aestivum; settings: for Plant response rating, Wheat: 0 to 100 scale where 0 is no effect and 100 is complete control; for Wheat plant response rating: 0 to 100 scale
Outline: as §1

corn = assay: Test A pre-/postemergence greenhouse test; type: in vivo, Zea mays; settings: for Plant response rating, Corn: 0 to 100 scale where 0 is no effect and 100 is complete control; for Corn plant response rating: 0 to 100 scale
Outline: as §1

downy brome = assay: Test C pre-/postemergence test; type: in vivo, Bromus tectorum
Outline: (§2)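 Compounds in a non-phytotoxic solvent with surfactant applied preemergence to seeded pots and, at the same time, postemergence to plants 2–18 cm tall (1- to 4-leaf stage). Paddy tests: pots flooded to 3 cm, compound applied into the water, depth held throughout.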

bermudagrass = assay: Test C pre-/postemergence test; type: in vivo, Cynodon dactylon
Outline: as §2

Surinam grass = assay: Test C pre-/postemergence test; type: in vivo, Brachiaria decumbens
Outline: as §2

crabgrass = assay: Test C pre-/postemergence test; type: in vivo, Digitaria sanguinalis
Outline: as §2

giant foxtail [2] = assay: Test C pre-/postemergence test; type: in vivo, Setaria faberii
Outline: as §2

johnsongrass = assay: Test C pre-/postemergence test; type: in vivo, Sorghum halepense
Outline: as §2

lambsquarters = assay: Test C pre-/postemergence test; type: in vivo, Chenopodium album
Outline: as §2

morningglory = assay: Test C pre-/postemergence test; type: in vivo, Ipomoea coccinea
Outline: as §2

pigweed = assay: Test C pre-/postemergence test; type: in vivo, Amaranthus retroflexus
Outline: as §2

soybean = assay: Test C pre-/postemergence test; type: in vivo, Glycine max
Outline: as §2

rice = assay: Test C flooded paddy test; type: in vivo, Oryza sativa; settings: Flood
Outline: (§3)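 Pots were flooded to 3 cm above the soil surface at treatment, compound applied directly to the paddy water, and that depth held throughout. Plants were kept in a greenhouse for 13 to 15 days, then visually rated against untreated controls.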

barnyardgrass = assay: Test C flooded paddy test; type: in vivo, Echinochloa crus-galli; settings: Flood
Outline: as §3

[3] = Postemergence, 500 g ai/ha, 0 is no effect, 100 is complete control
[4] = Preemergence, 125 g ai/ha, 0 no effect, 100 complete control
[5] = 62 g ai/ha, Preemergence, scale 0 to 100
[6] = 125 g ai/ha, preemergence, scale 0 (no effect) to 100 (complete control)
[7] = Postemergence, 62 g ai/ha, scale 0 to 100, 0 no effect, 100 complete control
[8] = Postemergence, 125 g ai/ha, scale 0 to 100, 0 no effect, 100 complete control
[9] = Postemergence, 250 g ai/ha, scale 0 to 100, 0 no effect, 100 complete control
[10] = Preemergence, 31 g ai/ha, scale 0 to 100 (0 no effect, 100 complete control)
[11] = preemergence, 250 g ai/ha, scale 0 (no effect) to 100 (complete control)
[12] = 62 g ai/ha, Preemergence, scale 0 to 100 (0 no effect, 100 complete control)
[13] = 62 g ai/ha, scale 0 to 100 (0 no effect, 100 complete control)
[14] = 250 g ai/ha, scale 0 to 100, 0 no effect, 100 complete control, 13 to 15 days

## CCn1nc(C(F)(F)F)c(CS(=O)(=O)c2cc(C)cc[n+]2[O-])c1OCC(F)(F)F [Compound 64]
Giant foxtail [1]; Postemergence, 125 g ai/ha
  Plant response rating, Foxtail, Giant: 80
Giant foxtail [1]; [3]
  Foxtail, Giant plant response rating: 90
Giant foxtail [1]; [4]
  Foxtail, Giant plant response rating: 100
Giant foxtail [1]; Preemergence, 500 g ai/ha
  Plant response rating, Foxtail, Giant: 100
velvetleaf; Postemergence, 125 g ai/ha
  Plant response rating, Velvetleaf: 60
velvetleaf; [3]
  Velvetleaf plant response rating: 70
velvetleaf; [4]
  Velvetleaf plant response rating: 50
velvetleaf; Preemergence, 500 g ai/ha
  Plant response rating, Velvetleaf: 100
wheat; Postemergence, 125 g ai/ha
  Plant response rating, Wheat: 50
wheat; [3]
  Wheat plant response rating: 60
wheat; [4]
  Wheat plant response rating: 40
wheat; Preemergence, 500 g ai/ha
  Plant response rating, Wheat: 70
corn; Postemergence, 125 g ai/ha
  Plant response rating, Corn: 40
corn; [3]
  Corn plant response rating: 50
corn; [4]
  Corn plant response rating: 0
corn; Preemergence, 500 g ai/ha
  Plant response rating, Corn: 60
Downy brome; [5]
  Bromegrass, Downy plant response rating: 30
Downy brome; [6]
  Bromegrass, Downy plant response rating: 85
Downy brome; Postemergence, 31 g ai/ha
  Plant response rating (0 to 100), Bromegrass, Downy: 0
Downy brome; [7]
  Plant response rating, Bromegrass, Downy: 0
Downy brome; [8]
  Plant response rating, Bromegrass, Downy: 10
Downy brome; [9]
  Plant response rating, Bromegrass, Downy: 20
Downy brome; [10]
  Plant response rating, Bromegrass, Downy: 30
Downy brome; [11]
  Bromegrass, Downy plant response rating: 100
bermudagrass; [12]
  Bermudagrass plant response rating: 100
bermudagrass; [6]
  Bermudagrass plant response rating: 100
bermudagrass; Postemergence, 31 g ai/ha
  Plant response rating (0 to 100), Bermudagrass: 0
bermudagrass; [7]
  Plant response rating, Bermudagrass: 0
bermudagrass; [8]
  Plant response rating, Bermudagrass: 0
bermudagrass; [9]
  Plant response rating, Bermudagrass: 40
bermudagrass; [10]
  Plant response rating, Bermudagrass: 100
bermudagrass; [11]
  Bermudagrass plant response rating: 100
Surinam grass; [5]
  Surinam Grass plant response rating: 100
Surinam grass; [6]
  Surinam Grass plant response rating: 100
Surinam grass; Postemergence, 31 g ai/ha
  Plant response rating (0 to 100), Surinam Grass: 0
Surinam grass; Postemergence, 62 g ai/ha
  Plant response rating (0 to 100), Surinam Grass: 0
Surinam grass; [8]
  Plant response rating, Surinam Grass: 0
Surinam grass; [9]
  Plant response rating, Surinam Grass: 40
Surinam grass; [10]
  Plant response rating, Surinam Grass: 95
Surinam grass; [11]
  Surinam Grass plant response rating: 100
crabgrass; [5]
  Crabgrass, Large plant response rating: 100
crabgrass; [6]
  Crabgrass, Large plant response rating: 100
crabgrass; Postemergence, 31 g ai/ha
  Plant response rating (0 to 100), Crabgrass, Large: 0
crabgrass; [7]
  Plant response rating, Crabgrass, Large: 0
crabgrass; [8]
  Plant response rating, Crabgrass, Large: 0
crabgrass; [9]
  Plant response rating, Crabgrass, Large: 20
crabgrass; [10]
  Plant response rating, Crabgrass, Large: 98
crabgrass; [11]
  Crabgrass, Large plant response rating: 100
Giant foxtail [2]; [5]
  Foxtail, Giant plant response rating: 100
Giant foxtail [2]; [6]
  Foxtail, Giant plant response rating: 100
Giant foxtail [2]; Postemergence, 31 g ai/ha
  Plant response rating (0 to 100), Foxtail, Giant: 0
Giant foxtail [2]; [7]
  Plant response rating, Foxtail, Giant: 0
Giant foxtail [2]; [8]
  Plant response rating, Foxtail, Giant: 0
Giant foxtail [2]; [9]
  Plant response rating, Foxtail, Giant: 45
Giant foxtail [2]; [10]
  Plant response rating, Foxtail, Giant: 85
Giant foxtail [2]; [11]
  Foxtail, Giant plant response rating: 100
johnsongrass; [5]
  Johnsongrass plant response rating: 98
johnsongrass; [6]
  Johnsongrass plant response rating: 100
johnsongrass; Postemergence, 31 g ai/ha
  Plant response rating (0 to 100), Johnsongrass: 0
johnsongrass; [7]
  Plant response rating, Johnsongrass: 0
johnsongrass; [8]
  Plant response rating, Johnsongrass: 0
johnsongrass; [9]
  Plant response rating, Johnsongrass: 0
johnsongrass; [10]
  Plant response rating, Johnsongrass: 55
johnsongrass; [11]
  Johnsongrass plant response rating: 100
lambsquarters; Postemergence, 31 g ai/ha
  Plant response rating (0 to 100), Lambsquarters: 0
lambsquarters; [7]
  Plant response rating, Lambsquarters: 0
lambsquarters; [8]
  Plant response rating, Lambsquarters: 0
lambsquarters; [9]
  Plant response rating, Lambsquarters: 0
morningglory; [5]
  Morningglory plant response rating: 50
morningglory; [6]
  Morningglory plant response rating: 55
morningglory; Postemergence, 31 g ai/ha
  Plant response rating (0 to 100), Morningglory: 0
morningglory; [7]
  Plant response rating, Morningglory: 0
morningglory; [8]
  Plant response rating, Morningglory: 0
morningglory; [9]
  Plant response rating, Morningglory: 0
morningglory; [10]
  Plant response rating, Morningglory: 0
morningglory; [11]
  Morningglory plant response rating: 80
pigweed; [5]
  Pigweed plant response rating: 95
pigweed; [6]
  Pigweed plant response rating: 100
pigweed; Postemergence, 31 g ai/ha
  Plant response rating (0 to 100), Pigweed: 0
pigweed; Postemergence, 62 g ai/ha
  Plant response rating (0 to 100), Pigweed: 0
pigweed; [8]
  Plant response rating, Pigweed: 0
pigweed; [9]
  Plant response rating, Pigweed: 5
pigweed; [10]
  Plant response rating, Pigweed: 95
pigweed; [11]
  Pigweed plant response rating: 100
soybean; [5]
  Soybean plant response rating: 20
soybean; [6]
  Soybean plant response rating: 70
soybean; Postemergence, 31 g ai/ha
  Plant response rating (0 to 100), Soybean: 25
soybean; Postemergence, 62 g ai/ha
  Plant response rating (0 to 100), Soybean: 25
soybean; [8]
  Plant response rating, Soybean: 30
soybean; [9]
  Plant response rating, Soybean: 35
soybean; [10]
  Plant response rating, Soybean: 0
soybean; [11]
  Soybean plant response rating: 80
rice; [13]
  Plant response rating, Rice: 0
rice; [14]
  Plant response rating, Rice: 60
barnyardgrass; [13]
  Plant response rating, Barnyardgrass: 0
barnyardgrass; [14]
  Plant response rating, Barnyardgrass: 20

## Cn1nc(C(F)(F)F)c(CS(=O)(=O)c2ccc(Cl)c[n+]2[O-])c1OCC(F)(F)F [Compound 73]
Giant foxtail [1]; Postemergence, 125 g ai/ha
  Plant response rating, Foxtail, Giant: 70
Giant foxtail [1]; [3]
  Foxtail, Giant plant response rating: 90
Giant foxtail [1]; [4]
  Foxtail, Giant plant response rating: 90
Giant foxtail [1]; Preemergence, 500 g ai/ha
  Plant response rating, Foxtail, Giant: 100
velvetleaf; Postemergence, 125 g ai/ha
  Plant response rating, Velvetleaf: 0
velvetleaf; [3]
  Velvetleaf plant response rating: 50
velvetleaf; [4]
  Velvetleaf plant response rating: 0
velvetleaf; Preemergence, 500 g ai/ha
  Plant response rating, Velvetleaf: 60
wheat; Postemergence, 125 g ai/ha
  Plant response rating, Wheat: 0
wheat; [3]
  Wheat plant response rating: 30
wheat; [4]
  Wheat plant response rating: 0
wheat; Preemergence, 500 g ai/ha
  Plant response rating, Wheat: 50
corn; Postemergence, 125 g ai/ha
  Plant response rating, Corn: 0
corn; [3]
  Corn plant response rating: 0
corn; [4]
  Corn plant response rating: 0
corn; Preemergence, 500 g ai/ha
  Plant response rating, Corn: 30
Downy brome; [5]
  Bromegrass, Downy plant response rating: 60
Downy brome; [6]
  Bromegrass, Downy plant response rating: 60
Downy brome; [10]
  Plant response rating, Bromegrass, Downy: 0
Downy brome; [11]
  Bromegrass, Downy plant response rating: 100
bermudagrass; [12]
  Bermudagrass plant response rating: 100
bermudagrass; [6]
  Bermudagrass plant response rating: 100
bermudagrass; [10]
  Plant response rating, Bermudagrass: 80
bermudagrass; [11]
  Bermudagrass plant response rating: 100
Surinam grass; [6]
  Surinam Grass plant response rating: 80
Surinam grass; [10]
  Plant response rating, Surinam Grass: 40
Surinam grass; [11]
  Surinam Grass plant response rating: 80
crabgrass; [5]
  Crabgrass, Large plant response rating: 85
crabgrass; [6]
  Crabgrass, Large plant response rating: 85
crabgrass; [10]
  Plant response rating, Crabgrass, Large: 85
crabgrass; [11]
  Crabgrass, Large plant response rating: 95
Giant foxtail [2]; [5]
  Foxtail, Giant plant response rating: 10
Giant foxtail [2]; [6]
  Foxtail, Giant plant response rating: 80
Giant foxtail [2]; [10]
  Plant response rating, Foxtail, Giant: 10
Giant foxtail [2]; [11]
  Foxtail, Giant plant response rating: 80
johnsongrass; [5]
  Johnsongrass plant response rating: 100
johnsongrass; [6]
  Johnsongrass plant response rating: 100
johnsongrass; [10]
  Plant response rating, Johnsongrass: 70
johnsongrass; [11]
  Johnsongrass plant response rating: 100
lambsquarters; [5]
  Lambsquarters plant response rating: 100
lambsquarters; [6]
  Lambsquarters plant response rating: 100
lambsquarters; [10]
  Plant response rating, Lambsquarters: 50
lambsquarters; [11]
  Lambsquarters plant response rating: 100
morningglory; [5]
  Morningglory plant response rating: 0
morningglory; [6]
  Morningglory plant response rating: 0
morningglory; [10]
  Plant response rating, Morningglory: 0
morningglory; [11]
  Morningglory plant response rating: 0
pigweed; [5]
  Pigweed plant response rating: 100
pigweed; [6]
  Pigweed plant response rating: 100
pigweed; [10]
  Plant response rating, Pigweed: 90
pigweed; [11]
  Pigweed plant response rating: 100
soybean; [5]
  Soybean plant response rating: 0
soybean; [10]
  Plant response rating, Soybean: 0
soybean; [11]
  Soybean plant response rating: 70
rice; [13]
  Plant response rating, Rice: 0
rice; [14]
  Plant response rating, Rice: 20
barnyardgrass; [13]
  Plant response rating, Barnyardgrass: 0
barnyardgrass; [14]
  Plant response rating, Barnyardgrass: 65
